Experimental data published in the NIST ThermoML archive (doi:10.1021/acs.jced.6b00483).
Several values for one entry are separate records, joined by “and”; a condition that tells them apart may be missing. Equal entries are not always repeated.

What was measured:
[1] = molar heat capacity at constant pressure; conditions: 101.33 kPa, Crystal 3, DSC
[2] = Molar enthalpy of transition or fusion; conditions: Crystal 3; DSC
[3] = DSC

NC(N)=C([N+](=O)[O-])[N+](=O)[O-] [1,1-diamino-2,2-dinitroethene]
Conditions | Triple point temperature [K] | molar heat capacity at constant pressure [J/K/mol]
[1], 345 K | – | 191.17
[1], 350 K | – | 193.24
[1], 355 K | – | 195.17
[1], 360 K | – | 197.24
[1], 365 K | – | 199.16
[1], 370 K | – | 201.24
[1], 375 K | – | 203.16
[1], 380 K | – | 205.09
[1], 385 K | – | 207.16
[3], Crystal 2 | 439.2 | –
[3], Crystal 3 | 393.7 | –

Conditions | Molar enthalpy of transition or fusion
[2] | 0.623 kcal/mol and 0.676 kcal/mol
